Where only a bound is given, the exact number is not on record here.

As usually defined, the EC50 is the concentration giving half of the maximal effect.

The first assay has as its system RSV A2 virus. In words: RSV CPE assay. As to conditions: human respiratory syncytial virus, HEp-2, 120 h, read-out: RSV A2 (Hep-2 cell) EC50.
As for `CC(C)C(=O)O[C@H]1[C@@H](OC(=O)C(C)C)[C@](C#N)(c2ccc3c(N)ncnn23)O[C@@H]1CO[P@@](=O)(N[C@@H](Cc1ccccc1)C(=O)OC1CCC1)Oc1ccccc1` [Compound 63b, (2R,3R,4R,5R)-2-(4-aminopyrrolo[2,1-f][1,2,4]triazin-7-yl)-2-cyano-5-((((S)-(((S)-1-cyclobutoxy-1-oxo-3-phenylpropan-2-yl)amino)(phenoxy)phosphoryl)oxy)methyl)tetrahydrofuran-3,4-diyl bis(2-methylpropionate)], the EC50 was under 100 nM.
For the compound `COC(C)(C)COC(=O)[C@H](Cc1ccccc1)N[P@@](=O)(OC[C@H]1O[C@@](C#N)(c2ccc3c(N)ncnn23)[C@H](OC(=O)C(C)C)[C@@H]1OC(=O)C(C)C)Oc1ccccc1` [Compound 64a, (2R,3R,4R,5R)-2-(4-aminopyrrolo[2,1-f][1,2,4]triazin-7-yl)-2-cyano-5-((((R)-(((S)-1-(2-methoxy-2-methylpropoxy)-1-oxo-3-phenylpropan-2-yl)amino)(phenoxy)phosphoryl)oxy)methyl)tetrahydrofuran-3,4-diyl bis(2-methylpropionate)], the EC50 lay within 100 to 200 nM.
Still for that read-out and setting: for `COC(C)(C)COC(=O)[C@H](Cc1ccccc1)N[P@](=O)(OC[C@H]1O[C@@](C#N)(c2ccc3c(N)ncnn23)[C@H](OC(=O)C(C)C)[C@@H]1OC(=O)C(C)C)Oc1ccccc1` [Compound 64b, (2R,3R,4R,5R)-2-(4-aminopyrrolo[2,1-f][1,2,4]triazin-7-yl)-2-cyano-5-((((S)-(((S)-1-(2-methoxy-2-methylpropoxy)-1-oxo-3-phenylpropan-2-yl)amino)(phenoxy)phosphoryl)oxy)methyl)tetrahydrofuran-3,4-diyl bis(2-methylpropionate)] the value was under 100 nM.

The assay is the same for the next values; noted with them: read-out: RSV A2 (Hep-2 cell) EC50; HEp-2 cells, RSV A2 virus, 5 days, CCK8.
With “(2R,3R,4R,5R)-2-(4-aminopyrrolo[2,1-f][1,2,4]triazin-7-yl)-2-cyano-5-((((R)-(((S)-1,4-bicyclopentyloxy-1,4-dioxobutan-2-yl)amino)(phenoxy)phosphoryl)oxy)methyl)tetrahydrofuran-3,4-diyl diacetate [Compound 58a]”, the EC50 was 200 to 500 nM.
Turning to “(2R,3R,4R,5R)-2-(4-aminopyrrolo[2,1-f][1,2,4]triazin-7-yl)-2-cyano-5-((((R)-(((S)-1,4-bicyclopentyloxy-1,4-dioxobutan-2-yl)amino)(phenoxy)phosphoryl)oxy)methyl)tetrahydrofuran-3,4-diyl dipropionate [Compound 59a]”, the EC50 fell in the range of 200 to 500 nM.
For the compound “(2R,3R,4R,5R)-2-(4-aminopyrrolo[2,1-f][1,2,4]triazin-7-yl)-2-cyano-5-((((R)-(((S)-1,4-dicyclobutoxy-1,4-dioxobutan-2-yl)amino)(phenoxy)phosphoryl)oxy)methyl)tetrahydrofuran-3,4-diyl diacetate [Compound 55a]”, the EC50 is 100 to 200 nM.
Still for that read-out and setting: for “(2R,3R,4R,5R)-2-(4-aminopyrrolo[2,1-f][1,2,4]triazin-7-yl)-2-cyano-5-((((R)-(((S)-1,4-dicyclobutoxy-1,4-dioxobutan-2-yl)amino)(phenoxy)phosphoryl)oxy)methyl)tetrahydrofuran-3,4-diyl dipropionate [Compound 56a]” the value was 200 to 500 nM.
As to “(2R,3R,4R,5R)-2-(4-aminopyrrolo[2,1-f][1,2,4]triazin-7-yl)-2-cyano-5-((((R)-(((S)-1-(2-ethylbutoxy)-1-oxopropan-2-yl)amino)(((isopropoxycarbonyl)oxy)methoxy)phosphoryl)oxy)methyl)tetrahydrofuran-3,4-diyl diacetate [Compound 5a]”, the EC50 was 200 to 500 nM.
The same measure, in the same setting: for “(2R,3R,4R,5R)-2-(4-aminopyrrolo[2,1-f][1,2,4]triazin-7-yl)-2-cyano-5-((((R)-(((S)-1-isopropoxy-1-oxopropan-2-yl)amino)(((isopropoxycarbonyl)oxy)methoxy)phosphoryl)oxy)methyl)tetrahydrofuran-3,4-diyl diacetate [Compound 1a]” the value was 100 to 200 nM; for “(2R,3R,4R,5R)-2-(4-aminopyrrolo[2,1-f][1,2,4]triazin-7-yl)-2-cyano-5-((((S)-(((S)-1,4-bicyclopentyloxy-1,4-dioxobutan-2-yl)amino)(phenoxy)phosphoryl)oxy)methyl)tetrahydrofuran-3,4-diyl diacetate [Compound 58b]”, under 100 nM; for “(2R,3R,4R,5R)-2-(4-aminopyrrolo[2,1-f][1,2,4]triazin-7-yl)-2-cyano-5-((((S)-(((S)-1,4-bicyclopentyloxy-1,4-dioxobutan-2-yl)amino)(phenoxy)phosphoryl)oxy)methyl)tetrahydrofuran-3,4-diyl dipropionate [Compound 59b]”, under 100 nM.
Same read-out and setting: for “(2R,3R,4R,5R)-2-(4-aminopyrrolo[2,1-f][1,2,4]triazin-7-yl)-2-cyano-5-((((S)-(((S)-1,4-dicyclobutoxy-1,4-dioxobutan-2-yl)amino)(phenoxy)phosphoryl)oxy)methyl)tetrahydrofuran-3,4-diyl diacetate [Compound 55b]” the value was 100 to 200 nM.
Turning to “(2R,3R,4R,5R)-2-(4-aminopyrrolo[2,1-f][1,2,4]triazin-7-yl)-2-cyano-5-((((S)-(((S)-1,4-dicyclobutoxy-1,4-dioxobutan-2-yl)amino)(phenoxy)phosphoryl)oxy)methyl)tetrahydrofuran-3,4-diyl dipropionate [Compound 56b]”, the EC50 lay within 100 to 200 nM.
In the case of “(2R,3R,4R,5R)-2-(4-aminopyrrolo[2,1-f][1,2,4]triazin-7-yl)-2-cyano-5-((((S)-(((S)-1-(2-ethylbutoxy)-1-oxopropan-2-yl)amino)(((isopropoxycarbonyl)oxy)methoxy)phosphoryl)oxy)methyl)tetrahydrofuran-3,4-diyl diacetate [Compound 5b]”, the EC50 lay in the range of 100 to 200 nM.
Still for that read-out and setting: for “(2R,3R,4R,5R)-2-(4-aminopyrrolo[2,1-f][1,2,4]triazin-7-yl)-2-cyano-5-((((S)-(((S)-1-isopropoxy-1-oxopropan-2-yl)amino)(((isopropoxycarbonyl)oxy)methoxy)phosphoryl)oxy)methyl)tetrahydrofuran-3,4-diyl diacetate [Compound 1b]” the value was 100 to 200 nM; for “(2R,3R,4R,5R)-2-(4-aminopyrrolo[2,1-f][1,2,4]triazin-7-yl)-5-((((bis(((isopropoxycarbonyl)oxy)methoxy))phosphoryl)oxy)methyl)-2-cyanotetrahydrofuran-3,4-diyldiisopropyl bis(carbonate) [Compound 28]”, over 1000 nM.

The values above are taken from EP4617278A1, “NUCLEOTIDE ANALOG, AND COMPOSITION AND USE THEREOF” (priority 2022, dated 2024).
